Test results published in patent US6995283B2, “Benzophenones as inhibitors of reverse transcriptase” (priority 2001, dated 2006).

Test system: HIV-1 (strain IIIIB)
Assay: MT4 cell assay (propidium iodide readout)
Type: cell-based
Conditions: Human immunodeficiency virus 1, control and standard, MT4 cells, read-out: expected range of IC50 values
Method: Antiviral HIV activity and compound-induced cytotoxicity were measured in parallel by means of a propidium iodide based procedure in the human T-cell lymphotropic virus transformed cell line MT4. Aliquots of the test compounds were serially diluted in medium (RPMI 1640, 10% fetal calf serum (FCS), and gentamycin) in 96-well plates (Costar 3598) using a Cetus Pro/Pette. Exponentially growing MT4 cells were harvested and centrifuged at 1000 rpm for 10 min in a Jouan centrifuge (model CR 4 12). Cell pellets were resuspended in fresh medium (RPMI 1640, 20% FCS, 20% IL-2, and gentamycin) to a density of 5×10^5 cells/ml. […] The plates were analyzed in an automated assay instrument (Screen Machine, Idexx Laboratories). […] The assay makes use of a propidium iodide dye to estimate the DNA content of each well. • B. For MTS readout, 20 μl CellTiter 96 AQ One Solution reagent (Promega #G3582) was added to each well. At 75 minutes following the addition of MTS reagent, absobance was read at 492 nm using a Tecan Sunrise 96-well plate reader. […]
For each assay plate, the results (relative fluorescence units, rfU, or OD values) of wells containing uninfected cells or infected cells with no compound were averaged, respectively. […] Percent of cells remaining is determined by the following formula: Percent of cells remaining=(compound-treated uninfected cells, rfU, or OD values/untreated uninfected cells)×100. […]

- IC50: 0.04 to 0.12 µM
Compound: Cc1cn([C@H]2C[C@H](N=[N+]=[N-])[C@@H](CO)O2)c(=O)[nH]c1=O [3′-azido-3′-deoxythymidine]
